Data taken from the NIST ThermoML archive (doi:10.1016/j.fluid.2007.11.005).
Numbers after ± are expanded uncertainties.

Conditions: Liquid, Bellows volumetry

Q: With CCCCn1cc[n+](C)c1.F[P-](F)(F)(F)(F)F [1-butyl-3-methylimidazolium hexafluorophosphate] as the compound, how does the mass density (312.8 K, 100 kPa) read?
A: The mass density was 1352 ± 4 kg/m3.

Q: What about the mass density (312.8 K, 10000 kPa) of the same compound?
A: Its mass density is 1358 ± 4 kg/m3.

Q: What about the mass density (312.8 K, 20000 kPa) of the same compound?
A: The mass density was 1363 ± 4 kg/m3.

Q: And the mass density (312.8 K, 30000 kPa)?
A: Its mass density is 1368 ± 4 kg/m3.

Q: What about the mass density (312.8 K, 40000 kPa) of the same compound?
A: Its mass density is 1373 ± 4 kg/m3.

Q: And the mass density (312.8 K, 50000 kPa)?
A: Its mass density is 1378 ± 4 kg/m3.

Q: What about the mass density (312.8 K, 60000 kPa) of the same compound?
A: Its mass density is 1383 ± 4 kg/m3.

Q: And the mass density (312.8 K, 70000 kPa)?
A: Its mass density is 1388 ± 4 kg/m3.

Q: And the mass density (312.8 K, 80000 kPa)?
A: The mass density was 1392 ± 4 kg/m3.

Q: What about the mass density (312.8 K, 90000 kPa) of the same compound?
A: Its mass density is 1396 ± 4 kg/m3.

Q: What about the mass density (312.8 K, 100000 kPa) of the same compound?
A: The mass density was 1400 ± 4 kg/m3.

Q: And the mass density (312.8 K, 110000 kPa)?
A: Its mass density is 1405 ± 4 kg/m3.

Q: What about the mass density (312.8 K, 120000 kPa) of the same compound?
A: The mass density was 1409 ± 4 kg/m3.

Q: What about the mass density (312.8 K, 130000 kPa) of the same compound?
A: The mass density was 1412 ± 4 kg/m3.

Q: What about the mass density (312.8 K, 140000 kPa) of the same compound?
A: Its mass density is 1416 ± 4 kg/m3.

Q: And the mass density (312.8 K, 150000 kPa)?
A: The mass density was 1420 ± 4 kg/m3.

Q: And the mass density (312.8 K, 160000 kPa)?
A: The mass density was 1424 ± 4 kg/m3.

Q: What about the mass density (312.8 K, 170000 kPa) of the same compound?
A: The mass density was 1427 ± 4 kg/m3.

Q: What about the mass density (312.8 K, 180000 kPa) of the same compound?
A: Its mass density is 1431 ± 4 kg/m3.

Q: And the mass density (312.8 K, 190000 kPa)?
A: The mass density was 1435 ± 4 kg/m3.

Q: What about the mass density (312.8 K, 200000 kPa) of the same compound?
A: Its mass density is 1438 ± 4 kg/m3.

Q: And the mass density (332.6 K, 10000 kPa)?
A: Its mass density is 1342 ± 3 kg/m3.

Q: And the mass density (332.6 K, 20000 kPa)?
A: Its mass density is 1347 ± 4 kg/m3.

Q: And the mass density (332.6 K, 30000 kPa)?
A: Its mass density is 1353 ± 4 kg/m3.

Q: And the mass density (332.6 K, 40000 kPa)?
A: Its mass density is 1358 ± 4 kg/m3.

Q: What about the mass density (332.6 K, 50000 kPa) of the same compound?
A: The mass density was 1363 ± 4 kg/m3.

Q: And the mass density (332.6 K, 60000 kPa)?
A: Its mass density is 1368 ± 4 kg/m3.

Q: And the mass density (332.6 K, 70000 kPa)?
A: Its mass density is 1373 ± 4 kg/m3.

Q: What about the mass density (332.6 K, 80000 kPa) of the same compound?
A: Its mass density is 1378 ± 4 kg/m3.

Q: What about the mass density (332.6 K, 90000 kPa) of the same compound?
A: The mass density was 1382 ± 4 kg/m3.

Q: What about the mass density (332.6 K, 100000 kPa) of the same compound?
A: Its mass density is 1387 ± 4 kg/m3.

Q: And the mass density (332.6 K, 110000 kPa)?
A: The mass density was 1391 ± 4 kg/m3.

Q: What about the mass density (332.6 K, 120000 kPa) of the same compound?
A: The mass density was 1395 ± 4 kg/m3.

Q: What about the mass density (332.6 K, 130000 kPa) of the same compound?
A: The mass density was 1399 ± 4 kg/m3.

Q: What about the mass density (332.6 K, 140000 kPa) of the same compound?
A: Its mass density is 1403 ± 4 kg/m3.

Q: And the mass density (332.6 K, 150000 kPa)?
A: Its mass density is 1407 ± 4 kg/m3.

Q: And the mass density (332.6 K, 160000 kPa)?
A: The mass density was 1411 ± 4 kg/m3.

Q: And the mass density (332.6 K, 170000 kPa)?
A: Its mass density is 1415 ± 4 kg/m3.

Q: And the mass density (332.6 K, 180000 kPa)?
A: Its mass density is 1418 ± 4 kg/m3.

Q: And the mass density (332.6 K, 190000 kPa)?
A: The mass density was 1422 ± 4 kg/m3.

Q: What about the mass density (332.6 K, 200000 kPa) of the same compound?
A: The mass density was 1425 ± 4 kg/m3.

Q: And the mass density (353.2 K, 10000 kPa)?
A: Its mass density is 1325 ± 3 kg/m3.

Q: What about the mass density (353.2 K, 20000 kPa) of the same compound?
A: Its mass density is 1332 ± 3 kg/m3.

Q: What about the mass density (353.2 K, 30000 kPa) of the same compound?
A: The mass density was 1338 ± 3 kg/m3.

Q: And the mass density (353.2 K, 40000 kPa)?
A: The mass density was 1343 ± 3 kg/m3.

Q: What about the mass density (353.2 K, 50000 kPa) of the same compound?
A: The mass density was 1349 ± 4 kg/m3.

Q: What about the mass density (353.2 K, 60000 kPa) of the same compound?
A: The mass density was 1354 ± 4 kg/m3.

Q: What about the mass density (353.2 K, 70000 kPa) of the same compound?
A: Its mass density is 1359 ± 4 kg/m3.

Q: And the mass density (353.2 K, 80000 kPa)?
A: Its mass density is 1364 ± 4 kg/m3.

Q: What about the mass density (353.2 K, 90000 kPa) of the same compound?
A: The mass density was 1368 ± 4 kg/m3.

Q: What about the mass density (353.2 K, 100000 kPa) of the same compound?
A: The mass density was 1373 ± 4 kg/m3.

Q: And the mass density (353.2 K, 110000 kPa)?
A: The mass density was 1377 ± 4 kg/m3.

Q: What about the mass density (353.2 K, 120000 kPa) of the same compound?
A: Its mass density is 1382 ± 4 kg/m3.

Q: What about the mass density (353.2 K, 130000 kPa) of the same compound?
A: Its mass density is 1386 ± 4 kg/m3.

Q: And the mass density (353.2 K, 140000 kPa)?
A: The mass density was 1390 ± 4 kg/m3.

Q: What about the mass density (353.2 K, 150000 kPa) of the same compound?
A: The mass density was 1394 ± 4 kg/m3.

Q: And the mass density (353.2 K, 160000 kPa)?
A: The mass density was 1398 ± 4 kg/m3.

Q: And the mass density (353.2 K, 170000 kPa)?
A: Its mass density is 1402 ± 4 kg/m3.

Q: What about the mass density (353.2 K, 180000 kPa) of the same compound?
A: Its mass density is 1405 ± 4 kg/m3.

Q: What about the mass density (353.2 K, 190000 kPa) of the same compound?
A: Its mass density is 1409 ± 4 kg/m3.

Q: What about the mass density (353.2 K, 200000 kPa) of the same compound?
A: Its mass density is 1413 ± 4 kg/m3.

Q: And the mass density (372.7 K, 10000 kPa)?
A: The mass density was 1310 ± 3 kg/m3.

Q: What about the mass density (372.7 K, 20000 kPa) of the same compound?
A: Its mass density is 1317 ± 3 kg/m3.

Q: And the mass density (372.7 K, 30000 kPa)?
A: The mass density was 1323 ± 3 kg/m3.

Q: What about the mass density (372.7 K, 40000 kPa) of the same compound?
A: Its mass density is 1329 ± 3 kg/m3.

Q: And the mass density (372.7 K, 50000 kPa)?
A: Its mass density is 1334 ± 3 kg/m3.

Q: What about the mass density (372.7 K, 60000 kPa) of the same compound?
A: Its mass density is 1339 ± 3 kg/m3.

Q: What about the mass density (372.7 K, 70000 kPa) of the same compound?
A: The mass density was 1345 ± 4 kg/m3.

Q: And the mass density (372.7 K, 80000 kPa)?
A: The mass density was 1350 ± 4 kg/m3.

Q: What about the mass density (372.7 K, 90000 kPa) of the same compound?
A: Its mass density is 1355 ± 4 kg/m3.

Q: What about the mass density (372.7 K, 100000 kPa) of the same compound?
A: The mass density was 1360 ± 4 kg/m3.

Q: What about the mass density (372.7 K, 110000 kPa) of the same compound?
A: The mass density was 1364 ± 4 kg/m3.

Q: What about the mass density (372.7 K, 120000 kPa) of the same compound?
A: Its mass density is 1369 ± 4 kg/m3.

Q: And the mass density (372.7 K, 130000 kPa)?
A: The mass density was 1373 ± 4 kg/m3.

Q: And the mass density (372.7 K, 140000 kPa)?
A: The mass density was 1377 ± 4 kg/m3.

Q: And the mass density (372.7 K, 150000 kPa)?
A: The mass density was 1381 ± 4 kg/m3.

Q: And the mass density (372.7 K, 160000 kPa)?
A: Its mass density is 1385 ± 4 kg/m3.

Q: What about the mass density (372.7 K, 170000 kPa) of the same compound?
A: The mass density was 1389 ± 4 kg/m3.

Q: What about the mass density (372.7 K, 180000 kPa) of the same compound?
A: Its mass density is 1393 ± 4 kg/m3.

Q: What about the mass density (372.7 K, 190000 kPa) of the same compound?
A: The mass density was 1397 ± 4 kg/m3.

Q: And the mass density (372.7 K, 200000 kPa)?
A: The mass density was 1401 ± 4 kg/m3.

Q: And the mass density (392.8 K, 10000 kPa)?
A: Its mass density is 1299 ± 3 kg/m3.

Q: What about the mass density (392.8 K, 20000 kPa) of the same compound?
A: The mass density was 1305 ± 3 kg/m3.

Q: And the mass density (392.8 K, 30000 kPa)?
A: The mass density was 1311 ± 3 kg/m3.

Q: And the mass density (392.8 K, 40000 kPa)?
A: The mass density was 1317 ± 3 kg/m3.

Q: And the mass density (392.8 K, 50000 kPa)?
A: Its mass density is 1323 ± 3 kg/m3.

Q: And the mass density (392.8 K, 60000 kPa)?
A: Its mass density is 1329 ± 3 kg/m3.

Q: And the mass density (392.8 K, 70000 kPa)?
A: The mass density was 1334 ± 3 kg/m3.

Q: What about the mass density (392.8 K, 80000 kPa) of the same compound?
A: Its mass density is 1339 ± 3 kg/m3.

Q: And the mass density (392.8 K, 90000 kPa)?
A: Its mass density is 1344 ± 4 kg/m3.
